Converted amounts (≈) assume the structure as drawn.
Legend:
Format in all cases: functional
Staphylococcus aureus [1] = test: Antibacterial activity against Staphylococcus aureus ATCC 25923 assessed as bacterial growth inhibition incubated for 18 to 20 hrs by broth microdilution method; settings: time 18-20 hrs
Escherichia coli [2] = test: Antibacterial activity against Escherichia coli ATCC 25922 assessed as bacterial growth inhibition incubated for 18 to 20 hrs by broth microdilution method; settings: time 18-20 hrs
Klebsiella pneumoniae = test: Antibacterial activity against Klebsiella pneumoniae ATCC 29665 assessed as bacterial growth inhibition incubated for 18 to 20 hrs by broth microdilution method; settings: time 18-20 hrs
Acinetobacter baumannii = test: Antibacterial activity against Acinetobacter baumannii ATCC 19606 assessed as bacterial growth inhibition incubated for 18 to 20 hrs by broth microdilution method; settings: time 18-20 hrs
Pseudomonas aeruginosa [3] = test: Antibacterial activity against Pseudomonas aeruginosa ATCC 27853 assessed as bacterial growth inhibition incubated for 18 to 20 hrs by broth microdilution method; settings: time 18-20 hrs
Escherichia coli [4] = test: Antibacterial activity against Escherichia coli assessed as bacterial growth inhibition
Pseudomonas aeruginosa [5] = test: Antibacterial activity against Pseudomonas aeruginosa assessed as bacterial growth inhibition
Escherichia coli [6] = test: Antibacterial activity against Escherichia coli assessed as bacterial growth inhibition by serial dilution method
Pseudomonas aeruginosa [7] = test: Antibacterial activity against Pseudomonas aeruginosa assessed as bacterial growth inhibition by serial dilution method
Bacillus subtilis = test: Antibacterial activity against Bacillus subtilis assessed as bacterial growth inhibition by serial dilution method
[8] = system: Staphylococcus epidermidis; test: Antibacterial activity against Staphylococcus epidermidis assessed as bacterial growth inhibition by serial dilution method
Staphylococcus aureus [9] = test: Antibacterial activity against Staphylococcus aureus assessed as bacterial growth inhibition by serial dilution method

MIC (Staphylococcus aureus [1]) | MIC (Escherichia coli [2]) | MIC (Klebsiella pneumoniae) | MIC (Acinetobacter baumannii) | MIC (Pseudomonas aeruginosa [3]) | MIC (Escherichia coli [4]) | MIC (Pseudomonas aeruginosa [5]) | MIC (Escherichia coli [6]) | MIC (Pseudomonas aeruginosa [7]) | MIC (Bacillus subtilis) | MIC [8] | MIC (Staphylococcus aureus [9]) | Structure (SMILES)
0.25 µg/mL (≈ 0.369 µM) | 0.25 µg/mL (≈ 0.369 µM) | 0.25 µg/mL (≈ 0.369 µM) | 0.25 µg/mL (≈ 0.369 µM) | 0.25 µg/mL (≈ 0.369 µM) | – | – | – | – | – | – | – | COc1ccc(C[C@H](NC(=O)Cn2cc(CN3CCN(c4cc5c(cc4F)c(=O)c(C(=O)O)cn5C4CC4)CC3)nn2)C(=O)O)cc1OC
– | – | – | – | – | 1.56 µg/mL (≈ 3.29 µM) | 1.56 µg/mL (≈ 3.29 µM) | – | – | – | – | – | COc1ccc(Cn2cc(COc3ccc(/C=C/C(=O)c4c(O)cc(C)oc4=O)cc3)nn2)cc1
– | – | – | – | – | – | – | 3.12 µg/mL (≈ 7.7 µM) | 3.12 µg/mL (≈ 7.7 µM) | 3.12 µg/mL (≈ 7.7 µM) | 3.12 µg/mL (≈ 7.7 µM) | – | O=C(Nc1ccc(F)cc1)OCc1cn(Cc2ccc(Br)cc2)nn1
– | – | – | – | – | – | – | 25 µg/mL (≈ 70.6 µM) | 25 µg/mL (≈ 70.6 µM) | 25 µg/mL (≈ 70.6 µM) | 25 µg/mL (≈ 70.6 µM) | 25 µg/mL (≈ 70.6 µM) | NC(=O)N/N=C/c1ccccc1OCc1cn(-c2ccc(F)cc2)nn1
– | – | – | – | – | – | – | 25 µg/mL (≈ 67.4 µM) | 25 µg/mL (≈ 67.4 µM) | 25 µg/mL (≈ 67.4 µM) | 25 µg/mL (≈ 67.4 µM) | 25 µg/mL (≈ 67.4 µM) | NC(=O)N/N=C/c1ccccc1OCc1cn(-c2ccc(Cl)cc2)nn1
– | – | – | – | – | – | – | 6.25 µg/mL (≈ 14 µM) | 6.25 µg/mL (≈ 14 µM) | 6.25 µg/mL (≈ 14 µM) | 6.25 µg/mL (≈ 14 µM) | 6.25 µg/mL (≈ 14 µM) | NC(=S)N/N=C/c1ccccc1OCc1cn(Cc2ccc(Br)cc2)nn1
0.25 µg/mL (≈ 0.365 µM) | 0.25 µg/mL (≈ 0.365 µM) | 0.25 µg/mL (≈ 0.365 µM) | 0.25 µg/mL (≈ 0.365 µM) | 0.25 µg/mL (≈ 0.365 µM) | – | – | – | – | – | – | – | O=C(Cn1cc(CN2CCN(c3cc4c(cc3F)c(=O)c(C(=O)O)cn4C3CC3)CC2)nn1)N[C@@H](Cc1cc(=O)[nH]c2ccccc12)C(=O)O
0.25 µg/mL (≈ 0.44 µM) | 0.25 µg/mL (≈ 0.44 µM) | 0.25 µg/mL (≈ 0.44 µM) | 0.25 µg/mL (≈ 0.44 µM) | 0.25 µg/mL (≈ 0.44 µM) | – | – | – | – | – | – | – | O=C(O)c1cn(C2CC2)c2cc(N3CCN(Cc4cn(CC(=O)N5CCC[C@H]5C(=O)O)nn4)CC3)c(F)cc2c1=O
– | – | – | – | – | – | – | 6.25 µg/mL (≈ 14 µM) | 6.25 µg/mL (≈ 14 µM) | 6.25 µg/mL (≈ 14 µM) | 6.25 µg/mL (≈ 14 µM) | 6.25 µg/mL (≈ 14 µM) | NC(=S)N/N=C/c1cccc(OCc2cn(Cc3ccc(Br)cc3)nn2)c1
0.25 µg/mL (≈ 0.404 µM) | 0.25 µg/mL (≈ 0.404 µM) | 0.25 µg/mL (≈ 0.404 µM) | 0.25 µg/mL (≈ 0.404 µM) | 0.25 µg/mL (≈ 0.404 µM) | – | – | – | – | – | – | – | O=C(Cn1cc(CN2CCN(c3cc4c(cc3F)c(=O)c(C(=O)O)cn4C3CC3)CC2)nn1)N[C@@H](Cc1ccccn1)C(=O)O
– | – | – | – | – | 9.75 µg/mL (≈ 16.3 µM) | – | – | – | – | – | – | COC(=O)[C@H](C)NC(=O)c1cc(=O)n(Cc2cn(C3O[C@H]4OC(C)(C)O[C@H]4[C@@H]4OC(C)(C)OC[C@@H]34)nn2)c2ccccc12 (some centres not stated)
0.25 µg/mL (≈ 0.365 µM) | 0.25 µg/mL (≈ 0.365 µM) | 0.25 µg/mL (≈ 0.365 µM) | 0.25 µg/mL (≈ 0.365 µM) | 0.25 µg/mL (≈ 0.365 µM) | – | – | – | – | – | – | – | O=C(Cn1cc(CN2CCN(c3cc4c(cc3F)c(=O)c(C(=O)O)cn4C3CC3)CC2)nn1)N[C@@H](Cc1ccccc1C(F)(F)F)C(=O)O
0.25 µg/mL (≈ 0.371 µM) | 0.25 µg/mL (≈ 0.371 µM) | 0.25 µg/mL (≈ 0.371 µM) | 0.25 µg/mL (≈ 0.371 µM) | 0.25 µg/mL (≈ 0.371 µM) | – | – | – | – | – | – | – | C=CCOc1ccc(C[C@H](NC(=O)Cn2cc(CN3CCN(c4cc5c(cc4F)c(=O)c(C(=O)O)cn5C4CC4)CC3)nn2)C(=O)O)cc1
– | – | – | – | – | – | – | 25 µg/mL (≈ 74.3 µM) | 25 µg/mL (≈ 74.3 µM) | 25 µg/mL (≈ 74.3 µM) | 25 µg/mL (≈ 74.3 µM) | 25 µg/mL (≈ 74.3 µM) | NC(=O)N/N=C/c1ccccc1OCc1cn(-c2ccccc2)nn1
0.25 µg/mL (≈ 0.385 µM) | 0.25 µg/mL (≈ 0.385 µM) | 0.25 µg/mL (≈ 0.385 µM) | 0.25 µg/mL (≈ 0.385 µM) | 0.25 µg/mL (≈ 0.385 µM) | – | – | – | – | – | – | – | O=C(Cn1cc(CN2CCN(c3cc4c(cc3F)c(=O)c(C(=O)O)cn4C3CC3)CC2)nn1)N[C@@H](CSc1ccccc1)C(=O)O

— ChEMBL document CHEMBL5344406, “1,2,3-Triazole-containing hybrids with potential antibacterial activity against ESKAPE pathogens” (2022)
